Laboratory results: patent publication US12390458B2, “Therapeutic combination of quinoline derivative and antibody” (CHIA TAI TIANQING PHARMACEUTICAL GROUP CO., LTD., priority 2018, dated 2025)
Structures can show the parent of a compound that is named as a salt.

Columns and labels:
[1] = Open, multicenter phase Ib/II clinical study, first-line 14C12H1L1 plus anlotinib hydrochloride: adverse events; assay type: in vivo, human; settings: patients on combined 14C12H1L1 + anlotinib, events related to the labelled treatment; for TRAE (incidence of treatment-related adverse events) / ≥ grade 3 TRAEs: by Jun. 27, 2019
From the text: This example discloses the results of an early open, multicenter phase Ib/II clinical study on first-line treatment of unresectable hepatocellular carcinoma with combined use of 14C12H1L1 and anlotinib hydrochloride.
This study is an open, multicenter phase Ib/II clinical study aimed at evaluating the effectiveness, i.e. safety, of 14C12H1L1 in combination with anlotinib in the first line treatment of unresectable hepatocellular carcinoma.
Secondary endpoints: (1) disease control rate (DCR), duration of response (DOR), time to response (TTR), progression-free survival (PFS), and treatment past progression (TPP) being evaluated by investigators according to RECISIT v1.1; (2) overall survival (OS); (3) safety evaluation: incidence and severity of AEs, clinically significant abnormal laboratory test results.
14C12H1L1 injection, 100 mg/10 mL solution; manufacturer: Akeso Tiancheng Guangdong Co., Ltd.; stored at 2-8° C. in the absence of light.
Anlotinib hydrochloride capsules (FOCUS V®), 8 mg/capsule; manufacturer: Chia Tai Tianging Pharmaceutical Group Co., Ltd.; sealed and be away from light.
14C12H1L1 in combination with anlotinib, wherein the 14C12H1L1: 200 mg, Q3W intravenous injection; anlotinib: taken once a day, 8 mg each time, 14 days of treatment plus 7 days of interruption, i.e., a treatment cycle of 21 days.

[2] = Body weight and tolerance of H22 tumor-bearing mice; assay type: in vivo
Description: The use and welfare of the laboratory animals were carried out in compliance with the provisions of Association for Assessment and Accreditation of Laboratory Animal Care, International (AAALAC). The health and death of the animals are monitored daily and routine examinations include observation of the effects of the test substance or drug on the daily performance of the animals, such as behavioral activities, weight changes, appearance, etc.
(§1) H22 cells were inoculated to each mouse subcutaneously, and when the tumor grew to 100-200 mm^3, the mice were randomly grouped and intragastrically (i.g.) administered or intraperitoneal (IP) injected with drug; the mice in the solvent group were intragastrically administrated with distilled water with the same volume; the administration volume was 0.1 mL/10 g body weight; specific administration dosages and regimes are shown in Table 4.

[3] = tested on: mouse liver cancer H22 subcutaneous xenograft tumor; test: Efficacy on mouse liver cancer H22 subcutaneous xenograft tumor; assay type: in vivo; settings: for Mean tumor volume (mm^3) D0: D0, day of first administration (baseline), KM mice, 10 per group; for % T/C D17 / Tumor growth inhibition (%): anlotinib hydrochloride 1 mg/kg i.g. QD×17, lenvatinib mesylate 5 mg/kg i.g. QD×17, mPD-1 1 mg/kg IP 5 times; for % T/C D17 / Tumor growth inhibition (%) / Mean tumor volume (mm^3) D17: D17; for Mean tumor volume (mm^3) D17: anlotinib hydrochloride 1 mg/kg i.g. QD×17, lenvatinib mesylate 5 mg/kg i.g. QD×17, mPD-1 1 mg/kg IP D0, D3, D7, D10, D14; for Complete regression / Partial regression: number of animals out of 10 per group
Description: The H22 cells were cultured in a 10-cm petri dish with RPMI 1640 medium containing 10% fetal bovine serum, penicillin and streptomycin in an incubator at 37° C. and 5% CO2. Subculturing was carried out twice a week and cells were collected, counted and inoculated when the cells grew exponentially.
KM mice, 6-7 weeks old, female, purchased from Shanghai JSJ Laboratory Animal Co. Ltd. Production license No.: SCXK (Shanghai) 2013-0006; animal certification No.: 311620400013790. Breeding environment: SPF grade.
The experimental index is to study the influence of the drug on the tumor growth, and the specific index is T/C (%) or tumor growth inhibition TGI (%).
Tumor diameters were measured twice weekly with a vernier caliper and tumor volume (V) was calculated according to the following formula: V=½×a×b^2, where a and b represent length and width, respectively.
T/C (%)=(T−T0)/(C−C0)×100, where T and C are the tumor volumes of animals at the end of the experiment in the test group and control group, respectively; T0 and C0 are the tumor volumes of animals at the beginning of the experiment in the test group and control group, respectively. Tumor growth inhibition (TGI)(%)=100−T/C(%). Tumor growth inhibition (TGI)(%)=100−(T−T0)/T0×100 when tumor started to regress.
If the volume of tumor shrinks compared with its initial volume, i.e., T<T0 […], it is defined as partial regression (PR) of tumor; if the tumor completely disappears, it is defined as complete regression (CR) of tumor.
as §1
After the experiment was completed, or when the tumor volume of the animals reached the euthanization endpoint of 1500 mm^3, the animals were put to death through carbon dioxide inhalation, followed by dissecting to take the tumor tissue and weighing and photographing.

advanced NSCLC = settings: phase III; Chinese patients; cited from earlier work
[4] = phase II trial; cited from earlier work

Compound | TRAE (incidence of treatment-related adverse events) [1] | ≥ grade 3 TRAEs [1] | SAE [1] | TRAEs resulting in the withdrawal [1] | body weight / tolerance of tumor-bearing mice ([2]; D0-D17, anlotinib hydrochloride 1 mg/kg, lenvatinib mesylate 5 mg/kg, mPD-1 1 mg/kg) | Mean tumor volume (mm^3) D0 [3] | % T/C D17 [3] | Tumor growth inhibition (%) [3] | Mean tumor volume (mm^3) D17 [3] | Complete regression ([3]; same doses) | Partial regression ([3]; same doses) | overall survival and progression-free survival (advanced NSCLC) | tolerability (advanced NSCLC) | overall survival [4] | progression-free survival [4] | body weight / tolerance of tumor-bearing mice ([2]; mouse, in vivo) | tumor growth / efficacy in words ([3]; D0-D17, same doses, comparison between groups)
14C12H1L1: anti-PD-1 monoclonal antibody (Akeso Bioscience); CN106977602A; CDRs SEQ ID NO: 25-30 | 62.5% | 6.25% | 6.25% | 6.25% | – | – | – | – | – | – | – | – | – | – | – | – | –
COc1cc2c(Oc3ccc4[nH]c(C)cc4c3F)ccnc2cc1OCC1(N)CC1 [Anlotinib hydrochloride, 1-[[[4-(4-fluoro-2-methyl-1H-indol-5-yl)oxy-6-methoxyquinolin-7-yl]oxy]methyl]cyclopropylamine hydrochloride] | – | – | – | – | no symptom like obvious weight loss | 131.4 mm^3 | 38.3% | 61.7% | 975.3 mm^3 | 0 | 0 | – | – | – | – | – | –
COc1cc2c(Oc3ccc4[nH]c(C)cc4c3F)ccnc2cc1OCC1(N)CC1 [Anlotinib, 1-[[[4-(4-fluoro-2-methyl-1H-indol-5-yl)oxy-6-methoxyquinolin-7-yl]oxy]methyl]cyclopropylamine] | 75% | 12.5% | 12.5% | 12.5% | – | – | – | – | – | – | – | extended overall survival and progression-free survival | well tolerated | potential benefit for overall survival | improve progression-free survival | – | –
COc1cc2nccc(Oc3ccc(NC(=O)NC4CC4)c(Cl)c3)c2cc1C(N)=O [Lenvatinib mesylate] | – | – | – | – | – | 127.6 mm^3 | 21.0% | 79% | 590.8 mm^3 | 0 | 0 | – | – | – | – | no symptom like obvious weight loss | obviously inhibits the growth
